Biological target: T1, Kir3.1/3.4 (Rattus norvegicus, UniProt P48548+P63251)
T1 construct: expressed in transfected cells
T1 sequence (P63251 1-501): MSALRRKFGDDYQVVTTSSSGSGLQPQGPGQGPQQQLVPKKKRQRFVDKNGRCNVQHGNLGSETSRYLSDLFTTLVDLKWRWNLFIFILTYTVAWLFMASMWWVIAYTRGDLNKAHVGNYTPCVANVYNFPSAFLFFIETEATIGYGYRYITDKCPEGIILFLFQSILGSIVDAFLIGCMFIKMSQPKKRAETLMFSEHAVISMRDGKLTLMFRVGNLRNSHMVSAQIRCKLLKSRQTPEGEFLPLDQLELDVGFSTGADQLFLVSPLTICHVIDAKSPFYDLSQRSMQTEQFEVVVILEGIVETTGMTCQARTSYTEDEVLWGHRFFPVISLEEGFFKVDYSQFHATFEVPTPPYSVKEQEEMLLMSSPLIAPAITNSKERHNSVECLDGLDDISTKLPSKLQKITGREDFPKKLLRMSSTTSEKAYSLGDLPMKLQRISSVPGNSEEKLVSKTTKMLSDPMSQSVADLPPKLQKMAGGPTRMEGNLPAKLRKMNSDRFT
T1 sequence (P48548 1-419): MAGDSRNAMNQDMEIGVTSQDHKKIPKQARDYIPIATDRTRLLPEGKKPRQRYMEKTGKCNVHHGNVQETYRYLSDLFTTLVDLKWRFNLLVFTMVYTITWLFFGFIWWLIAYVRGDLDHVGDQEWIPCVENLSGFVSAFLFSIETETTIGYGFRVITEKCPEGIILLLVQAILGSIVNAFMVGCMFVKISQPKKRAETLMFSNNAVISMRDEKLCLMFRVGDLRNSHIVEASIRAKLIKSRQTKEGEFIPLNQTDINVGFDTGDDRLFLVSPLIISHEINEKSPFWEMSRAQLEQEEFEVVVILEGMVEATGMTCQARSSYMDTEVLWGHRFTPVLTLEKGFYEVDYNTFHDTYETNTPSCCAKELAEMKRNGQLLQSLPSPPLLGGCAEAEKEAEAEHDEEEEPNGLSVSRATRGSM
Assay: Kir3.1/3.4 Q-patch Method (automated patch clamp, Sophion Q-patch)
Format: cell-based
Details: HEK293 cells stably-expressing Kir3.1/3.4; current at -120 mV; QPatch-16 or QPatch-48
Experimental: For automated patch-clamp studies using the Sophion Q-patch, accumulative concentration-responses experiments were conducted to determine compound activity against the ion channel target. Voltage-clamp experiments were performed using HEK293 cells stably-expressing Kir3.1/3.4 using either a QPatch-16 or QPatch-48 (Sophion Bioscience A/S). A voltage waveform (VHold−20 mV, step to 60 mV for 100 ms, ramp to −120 mV over 500 ms, hold at −120 mV for 100 ms before returning to VHold) was repeatedly applied to the cells under voltage-clamp at a frequency of 0.1 Hz to elicit Kir3.1/3.4 currents. Mean current at −120 mV was measured in the absence (Icontrol) and presence of drug (IDrug). Assessment of passive leak was performed by removal of external potassium (IZero). Leak current was subtracted from control and drug recordings. Current inhibition (%) was calculated as {1−[(IDrug−IZero)/(IControl−IZero)]}*100. Data were fitted with a sigmoidal function to yield an IC50 and Hill coefficient. Composition of external experimental buffer was (in mM): 40 NaCl, 100 KCl, 5 CaCl2, 1 MgCl2, 10 HEPES pH 7.4. Composition of internal solution was (in mM). 40 K-gluconate, 60 KF, 20 NaCl, 5 Mg-ATP, 0.9 GTPgS, 20 EGTA, pH 7.2. Compounds were formulated in DMSO and diluted in buffer to give a final drug concentration of between […] and a final DMSO concentration of 0.1-0.3%.

Row | SMILES | IC50
1 | COCC1CC2CCC(C1)N2c1nc(N2CCNC(=O)C2)nc2scc(-c3ccccc3OC)c12 (stereo not shown) [Example 378, 4-[4-[3-(methoxymethyl)-8-azabicyclo[3.2.1]octan-8-yl]-5-(2-methoxyphenyl)thieno[2,3-d]pyrimidin-2-yl]piperazin-2-one] | 0.5 to 3 µM
2 | Clc1ccccc1-c1csc2nc(N3CCOCC3)nc(N3C4CCC3COC4)c12 [Example 425, 8-[5-(2-chlorophenyl)-2-morpholino-thieno[2,3-d]pyrimidin-4-yl]-3-oxa-8-azabicyclo[3.2.1]octane] | < 0.5 µM
3 | COc1ccccc1-c1csc2nc(N3CCCC(C(N)=O)C3)nc(N3C4CCC3COC4)c12 (stereo not shown) [Example 399, 1-[5-(2-methoxyphenyl)-4-(3-oxa-8-azabicyclo[3.2.1]octan-8-yl)thieno[2,3-d]pyrimidin-2-yl]piperidine-3-carboxamide] | 0.5 to 3 µM
4 | COc1ccccc1-c1csc2nc(N3CCC(O)C3)nc(N3C4CCC3COC4)c12 (stereo not shown) [Example 404, 1-[5-(2-methoxyphenyl)-4-(3-oxa-8-azabicyclo[3.2.1]octan-8-yl)thieno[2,3-d]pyrimidin-2-yl]pyrrolidin-3-ol] | < 0.5 µM
5 | COc1ccccc1-c1csc2nc(N3C4CCC3CC(O)C4)nc(N3CCC(C(N)=O)C3)c12 (stereo not shown) [Example 414, 1-[2-(3-hydroxy-8-azabicyclo[3.2.1]octan-8-yl)-5-(2-methoxyphenyl)thieno[2,3-d]pyrimidin-4-yl]pyrrolidine-3-carboxamide] | 0.5 to 3 µM
6 | NC(=O)C1CCN(c2nc(N3C4CCC3CC(O)C4)nc3scc(-c4ccccc4Cl)c23)C1 (stereo not shown) [Example 412, 1-[5-(2-chlorophenyl)-2-(3-hydroxy-8-azabicyclo[3.2.1]octan-8-yl)thieno[2,3-d]pyrimidin-4-yl]pyrrolidine-3-carboxamide] | 0.5 to 3 µM
7 | Clc1ccccc1-c1csc2nc(N3C4CCC3COC4)nc(N3C4CCC3COC4)c12 [Example 423, 8-[5-(2-chlorophenyl)-2-(3-oxa-8-azabicyclo[3.2.1]octan-8-yl)thieno[2,3-d]pyrimidin-4-yl]-3-oxa-8-azabicyclo[3.2.1]octane] | 0.5 to 3 µM
8 | COCC1CC2CCC(C1)N2c1nc(N2C3CCC2COC3)c2c(-c3ccccc3OC)csc2n1 (stereo not shown) [Example 395, 8-[2-[3-(methoxymethyl)-8-azabicyclo[3.2.1]octan-8-yl]-5-(2-methoxyphenyl)thieno[2,3-d]pyrimidin-4-yl]-3-oxa-8-azabicyclo[3.2.1]octane] | 0.5 to 3 µM
9 | COc1ccccc1-c1csc2nc(N3C4CCC3CC(CO)C4)nc(N3C4CCC3CC(OC)C4)c12 (stereo not shown) [Example 371, [8-[4-(3-methoxy-8-azabicyclo[3.2.1]octan-8-yl)-5-(2-methoxyphenyl)thieno[2,3-d]pyrimidin-2-yl]-8-azabicyclo[3.2.1]octan-3-yl]methanol] | 0.5 to 3 µM
10 | NC(=O)C1CCN(c2nc(N3C4CCC3COC4)nc3scc(-c4ccccc4Cl)c23)C1 (stereo not shown) [Example 415, 1-[5-(2-chlorophenyl)-2-(3-oxa-8-azabicyclo[3.2.1]octan-8-yl)thieno[2,3-d]pyrimidin-4-yl]pyrrolidine-3-carboxamide] | 0.5 to 3 µM
11 | COc1ccccc1-c1csc2nc(N3CCC(C(N)=O)C3)nc(N3C4CCC3CC(OC)C4)c12 (stereo not shown) [Example 396, 1-[4-(3-methoxy-8-azabicyclo[3.2.1]octan-8-yl)-5-(2-methoxyphenyl)thieno[2,3-d]pyrimidin-2-yl]pyrrolidine-3-carboxamide] | < 0.5 µM
12 | COc1ccccc1-c1csc2nc(N3CCNC(=O)C3)nc(N3C4CCC3CC(OC)C4)c12 (stereo not shown) [Example 380, 4-[4-(3-methoxy-8-azabicyclo[3.2.1]octan-8-yl)-5-(2-methoxyphenyl)thieno[2,3-d]pyrimidin-2-yl]piperazin-2-one] | < 0.5 µM
13 | COCC1CC2CCC(C1)N2c1nc(C#N)nc2scc(-c3ccccc3OC)c12 (stereo not shown) [Example 406, 4-[3-(methoxymethyl)-8-azabicyclo[3.2.1]octan-8-yl]-5-(2-methoxyphenyl)thieno[2,3-d]pyrimidine-2-carbonitrile] | < 0.5 µM
14 | NC(=O)C1CN(c2nc(N3C4CCC3COC4)c3c(-c4ccccc4Cl)csc3n2)CCO1 (stereo not shown) [Example 420, 4-[5-(2-chlorophenyl)-4-(3-oxa-8-azabicyclo[3.2.1]octan-8-yl)thieno[2,3-d]pyrimidin-2-yl]morpholine-2-carboxamide] | < 0.5 µM
15 | COc1ccccc1-c1csc2nc(N3C4CCC3COC4)nc(N3CCOC(C(N)=O)C3)c12 (stereo not shown) [Example 419, 4-[5-(2-methoxyphenyl)-2-(3-oxa-8-azabicyclo[3.2.1]octan-8-yl)thieno[2,3-d]pyrimidin-4-yl]morpholine-2-carboxamide] | < 0.5 µM
16 | COc1ccccc1-c1csc2nc(N3CCCC(C(N)=O)C3)nc(N3C4CCC3CC(OC)C4)c12 (stereo not shown) [Example 390, 1-[4-(3-methoxy-8-azabicyclo[3.2.1]octan-8-yl)-5-(2-methoxyphenyl)thieno[2,3-d]pyrimidin-2-yl]piperidine-3-carboxamide] | 0.5 to 3 µM
17 | NC(=O)C1CCN(c2nc(N3C4CCC3COC4)c3c(-c4ccccc4Cl)csc3n2)C1 (stereo not shown) [Example 422, 1-[5-(2-chlorophenyl)-4-(3-oxa-8-azabicyclo[3.2.1]octan-8-yl)thieno[2,3-d]pyrimidin-2-yl]pyrrolidine-3-carboxamide] | 0.5 to 3 µM
18 | COC1CC2CCC(C1)N2c1nc(N2CCOC(C(N)=O)C2)nc2scc(-c3ccccc3Cl)c12 (stereo not shown) [Example 408, 4-[5-(2-chlorophenyl)-4-(3-methoxy-8-azabicyclo[3.2.1]octan-8-yl)thieno[2,3-d]pyrimidin-2-yl]morpholine-2-carboxamide] | < 0.5 µM
19 | NC(=O)C1CCCN(c2nc(N3C4CCC3COC4)c3c(-c4ccccc4Cl)csc3n2)C1 (stereo not shown) [Example 410, 1-[5-(2-chlorophenyl)-4-(3-oxa-8-azabicyclo[3.2.1]octan-8-yl)thieno[2,3-d]pyrimidin-2-yl]piperidine-3-carboxamide] | 0.5 to 3 µM
20 | COc1ccccc1-c1csc2nc(N3CCNC(=O)C3)nc(N3C4CCC3COC4)c12 [Example 403, 4-[5-(2-methoxyphenyl)-4-(3-oxa-8-azabicyclo[3.2.1]octan-8-yl)thieno[2,3-d]pyrimidin-2-yl]piperazin-2-one] | < 0.5 µM
21 | COc1ccccc1-c1csc2nc(N3C4CCC3CC(OC)C4)nc(N3C4CCC3COC4)c12 (stereo not shown) [Example 397, 8-[2-(3-methoxy-8-azabicyclo[3.2.1]octan-8-yl)-5-(2-methoxyphenyl)thieno[2,3-d]pyrimidin-4-yl]-3-oxa-8-azabicyclo[3.2.1]octane] | < 0.5 µM
22 | OC1CC2CCC(C1)N2c1nc(N2C3CCC2COC3)c2c(-c3ccccc3Cl)csc2n1 (stereo not shown) [Example 421, 8-[5-(2-chlorophenyl)-4-(3-oxa-8-azabicyclo[3.2.1]octan-8-yl)thieno[2,3-d]pyrimidin-2-yl]-8-azabicyclo[3.2.1]octan-3-ol] | < 0.5 µM
23 | COc1ccccc1-c1csc2nc(N3CCNC(C(N)=O)C3)nc(N3C4CCC3CC(OC)C4)c12 (stereo not shown) [Example 394, 4-[4-(3-methoxy-8-azabicyclo[3.2.1]octan-8-yl)-5-(2-methoxyphenyl)thieno[2,3-d]pyrimidin-2-yl]piperazine-2-carboxamide] | < 0.5 µM
24 | NC(=O)C1CCCN(c2nc(N3C4CCC3COC4)nc3scc(-c4ccccc4Cl)c23)C1 (stereo not shown) [Example 411, 1-[5-(2-chlorophenyl)-2-(3-oxa-8-azabicyclo[3.2.1]octan-8-yl)thieno[2,3-d]pyrimidin-4-yl]piperidine-3-carboxamide] | 0.5 to 3 µM
25 | COc1ccccc1-c1csc2nc(N3C4CCC3COC4)nc(N3C4CCC3COC4)c12 [Example 402, 8-[5-(2-methoxyphenyl)-2-(3-oxa-8-azabicyclo[3.2.1]octan-8-yl)thieno[2,3-d]pyrimidin-4-yl]-3-oxa-8-azabicyclo[3.2.1]octane] | 0.5 to 3 µM

Source: patent publication US9290511B2, “Thieno-pyrimidines, useful as potassium channel inhibitors” (XENTION LIMITED, priority 2011, dated 2016)
